The values below come from patent publication US5547972A, “Therapeutic agents useful for treating inflammatory diseases” (The Boots Company PLC, priority 1991, dated 1996).

Structures can show the parent of a compound that is named as a salt. Where two headings read alike, the source gives them in different places.

The test system of one data set is platelet aggregation. To be noted: in vitro; Il Farmaco, 44 (5), 495-502, 1989; cited from earlier work.
Data set [1] relates to Zymosan Stimulated Macrophaqes. Description: Test A: Inhibition of Arachidonic Acid Release from Zymosan Stimulated Macrophages. The class given is cell-based, mouse (female MF1). To be noted: inhibition of arachidonic acid release, six concentrations (100, 50, 20, 10, 5 and 1 μM), 5 h with zymosan, read-out: Test A IC50. In short, it runs like this: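 Peritoneal macrophages from female MF1 mice, labelled overnight with [3H]-arachidonic acid (1.6 μCi/ml final), adherent cells pretreated 24 h with drug, then stimulated 5 h with fresh drug plus stimulus at 37° C. Released label counted by scintillation; net stimulated release inhibition at 1–100 μM gives IC50.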

The subject of data set [2] is Carrageenan-induced rat paw oedema. Description: Test B: Carrageenan-induced rat paw oedema test. The settings on record: inhibition of paw oedema, 1 h before carrageenan, 3 h after injection; for inhibition in vivo at 100 mg/kg: Rattus norvegicus, po, 3 h. The class given is in vivo, rat (female). As for the experimental part: Carrageenan-induced rat paw oedema test
Female rats, weight range 125-150 g were fasted overnight. One of the hind legs of each animal was marked with a line at the connection between the cuboid/navicular and calcaneus/talus bones. Groups of six rats were orally dosed at 10 ml/kg, in random order, with a given dose of the test compound given as a solution or suspension in 10% (w/v) aqueous acacia solution.
One hour after dosing, 0.1 ml of 1% (w/v) sterile carrageenan λ in normal saline was injected deeply into the plantar surface of the marked hind foot of each rat. The volume of the foot (up to the marked line) was measured immediately after injection using duplicate water displacement readings. Three hours after injection the foot volume was measured again and the percentage increase in foot volume relative to the initial reading was calculated.
The increase in foot volume (i.e. the degree of oedema) in drug treated animals when compared with that in the drug untreated control gave the degree of inhibition of paw oedema by the drug.
Compounds were considered to be active in this test if they produced a 20% or greater inhibition of paw oedema in at least two out of three tests after oral dosing at 100 mg/kg. Statistical significance was assessed using the Student't test for single dose studies and Dunnett's test for multiple dose studies. More advantageous compounds were active in both Tests A and B,
(In general: In the carrageenan paw model, swelling and tenderness develop within hours.)

The conditions of data set [3]: alleged in literature; cited from earlier work.
The subject of a further data set is mice. The settings on record: in mice; cited from earlier work.

With `CC(CCn1ccnc1)NCc1ccccc1` (stereo not shown) [Compound A], in the data set with platelet aggregation, the “inhibitory effect on platelet aggregation” value is “inhibitory effect on platelet aggregation in vitro”.
Consider `CCc1nccn1CCCNC(C)c1ccc(Cl)cc1` (stereo not shown) [Example 53, N-[1-(4-Chlorophenyl)ethyl]-3-(2-ethylimidazol-1-yl)propylamine dihydrochloride], for which the IC50 (in general, the concentration needed to halve the response being measured) in data set [1] (Mus musculus, Macrophage, 5 h) turned out to be 31 µM. In data set [2], the inhibition in vivo (in general, how much of the control response was suppressed) at 100 mg/kg stood at 27%.
On to `CC(NCCCCCn1ccnc1)c1ccc(Cl)cc1` (stereo not shown) [Example 55, N-[1-(4-Chlorophenyl)ethyl]-5-(imidazol-1-yl)pentylamine dioxalate], for which the IC50 in data set [1] (Mus musculus, Macrophage, 5 h) is 32 µM. Moreover, 100 mg/kg produced 45% inhibition in vivo in data set [2].
Turning to `CC(NCC(C)(C)Cn1ccnc1)c1ccc(Cl)cc1` (stereo not shown) [Example 58, N-[1-(4-chlorophenyl)ethyl]-3-(imidazol-1-yl)-2,2-dimethylpropylamine], the IC50 in data set [1] (Mus musculus, Macrophage, 5 h) amounted to 55 µM. Also, the inhibition in vivo at 100 mg/kg in data set [2] turned out to be 79%.
For the compound `CC(C)(NCCCn1ccnc1)c1ccc(Cl)cc1` [Example 59, N-[1-(4-chlorophenyl)-1-methylethyl]-3-(imidazol-1-yl)propylamine], the IC50 in data set [1] (listed as 68 (1)) and in data set [1] was 35 µM throughout. In data set [2], this compound showed an inhibition in vivo at 100 mg/kg of 65%.
In the case of `Cc1nccn1CCCNC(C)(C)c1ccc(Cl)cc1` [Example 60, N-[1-(4-chlorophenyl)-1-methylethyl]-3-(2-methylimidazol-1-yl)propylamine], the IC50 in data set [1] (Mus musculus, Macrophage, 5 h) stood at 9 µM. The same compound gave an inhibition in vivo at 100 mg/kg in data set [2] of 59%.
The matching figures for `CC(C)(NCCCCCn1ccnc1)c1ccc(Cl)cc1` [Example 62, N-[1-(4-chlorophenyl)-1-methylethyl]-5-(imidazol-1-yl)pentylamine]: 21 µM and 42%.
For `Clc1ccc(CNCCCn2cnc(Cl)c2Cl)cc1` [Example 64, N-(4-chlorobenzyl)-3-(4,5-dichloroimidazol-1-yl)propylamine dihydrochloride] the same measures were 18 µM and 30%.
The matching figures for `CC(C)c1nccn1CCCNC(C)c1ccc(Cl)cc1` (stereo not shown) [Example 65, N-[1-(4-Chlorophenyl)ethyl]-3-(2-isopropylimidazol-1-yl)propylamine]: 18 µM and 27%.
On to `Cc1nc(C)n(CCCNC(C)c2ccc(Cl)cc2)c1C` (stereo not shown) [Example 66, N-[1-(4-Chlorophenyl)ethyl]-3-(2,4,5-trimethylimidazol-1-yl)propylamine], for which the IC50 in data set [1] (Mus musculus, Macrophage, 5 h) stood at 13 µM. For the same compound, the inhibition in vivo at 100 mg/kg in data set [2] was 13%.
For `CC(NCCCn1cnc(Cl)c1Cl)c1ccc(Cl)cc1` (stereo not shown) [Example 67, N-[1-(4-Chlorophenyl)ethyl]-3-(4,5-dichloroimidazol-1-yl)propylaminesesquihydrochloride] the same measures were 18 µM and 42%.
Regarding `Cc1ncn(CCCNC(C)(C)c2ccc(Cl)cc2)c1C` [Example 70, N-[1-(4-Chlorophenyl)-1-methylethyl]-3-(4,5-dimethylimidazol-1-yl)propylamine], the IC50 in data set [1] (Mus musculus, Macrophage, 5 h) was 11 µM. In data set [2], testing at 100 mg/kg gave an inhibition in vivo of 21%.
As to `CC(C)c1nccn1CCCNCc1ccc(Cl)cc1` [Example 71, N-(4-Chlorobenzyl)-3-(2-isopropylimidazol-1-yl)propylamine-dihydrochloride], the IC50 in data set [1] (Mus musculus, Macrophage, 5 h) stood at 25 µM. The inhibition in vivo at 100 mg/kg in data set [2] stood at 10%.
For `CCc1nccn1CCCNCc1ccc(Cl)cc1` [Example 72, N-(4-Chlorobenzyl)-3-(2-ethylimidazol-1-yl)propylamine], the IC50 in data set [1] (Mus musculus, Macrophage, 5 h) was 26 µM. This compound came in with an inhibition in vivo at 100 mg/kg in data set [2] of 18%.
Consider `Cc1ccc(C(C)(C)NCCCn2ccnc2C)cc1` [Example 73, 3-(2-Methylimidazol-1-yl)-N-[1-methyl-1-(p-tolyl)ethyl]propylamine dihydrochloride], for which, in data set [1] (Mus musculus, Macrophage, 5 h), the IC50 came out at 49 µM. In addition, the inhibition in vivo at 100 mg/kg in data set [2] amounted to 8%.
For `Cc1ccc(C(C)(C)NCCCn2ccnc2)cc1` [Example 75, 3-(Imidazol-1-yl)-N-[1-methyl-1-(p-tolyl)ethyl]propylamine dihydrochloride] the same measures were 47 µM and 42%.
Consider `CCC(CC)(NCCCn1ccnc1)c1ccc(Cl)cc1` [Example 76, 1-(4-Chlorophenyl)-1-ethyl-3'-(imidazol-1-yl)dipropylamine dihydrochloride], for which the IC50 in data set [1] (Mus musculus, Macrophage, 5 h) was found to be 15 µM. Also, the inhibition in vivo at 100 mg/kg in data set [2] turned out to be 31%.
In the case of `CCOC(=O)c1ccc(C(C)(C)NCCCn2ccnc2)cc1` [Example 77, Ethyl 4-{1-[3-(imidazol-1-yl)propylamino]-1-methylethyl}benzoate], the IC50 in data set [1] (Mus musculus, Macrophage, 5 h) stood at 82 µM. Further, in data set [2], the inhibition in vivo at 100 mg/kg came to 23%.
The matching figures for `CCOC(=O)c1c(C)ncn1CCCNC(C)(C)c1ccc(Cl)cc1` [Example 78, Ethyl 1-{3-[1-(4-chlorophenyl)-1-methylethylamino]propyl)-4-methylimidazole-5-carboxylate]: 20 µM and 7%.
The matching figures for `CCC(CC)(NCCCn1ccnc1)c1ccccc1` [Example 80, N-(1-Ethyl-1-phenylpropyl)-3-(imidazol-1-yl)propylamine]: 54 µM and 52%.
For `Clc1ccc(C2(NCCCn3ccnc3)CC2)cc1` [Example 82, N-[1-(4-Chlorophenyl)cycloprop-1-yl]-3-(imidazol-1-yl)propylamine dihydrochloride] the same measures were 16 µM and 38%.
`CC(C)(NCCCn1cncc1CO)c1ccc(Cl)c(Cl)c1` [Example 84, 1-{3-[1-(3,4-Dichlorophenyl)-1-methylethylamino]propyl}imidazol-5-ylmethanol]: the IC50 in data set [1] (Mus musculus, Macrophage, 5 h) stood at 24 µM. Moreover, the inhibition in vivo at 100 mg/kg in data set [2] came to 19%.
As to `CC(C)(NCCCn1cnc(CO)c1)c1ccc(-c2ccccc2)cc1` [Example 85, 1-{3-[1-(4-biphenylyl)-1-methylethylamino]propyl}imidazol-4-yl-methanol], in data set [1] (Mus musculus, Macrophage, 5 h), the half-inhibitory concentration (IC50) was 45 µM. The compound also returned an inhibition in vivo at 100 mg/kg in data set [2] of 0%.
Consider `CC(C)(NCCCn1cncc1CO)c1ccc(Cl)cc1` [Example 88, 1-{3-[1-(4-Chlorophenyl)-1-methylethylamino]propyl}imidazol-5-yl-methanol dihydrochloride], for which, in data set [1] (Mus musculus, Macrophage, 5 h), the IC50 is 60 µM. Also, in data set [2], 100 mg/kg produced 6% inhibition in vivo.
For `CC(C)(NCCCCn1ccnc1)c1ccc(Cl)cc1` [Example 89, N-[1-(4-chlorophenyl)-1-methylethyl]-4-(imidazol-1-yl)butylamine] the same measures were 40 µM and 51%.
For `CCC(c1ccc(Cl)cc1)N(C)CCCn1ccnc1` (stereo not shown) [Example 91, N-[1-(4-chlorophenyl)propyl]-3-(imidazol-1-yl)-N-methylpropylamine] the same measures were 62 µM and 58%.
For `CC(=O)OCc1ncn(CCCNC(C)(C)c2ccc(Cl)cc2)c1C` [Example 98, 1-{3-[1-(4-chlorophenyl)-1-methylethylamino]propyl}-5-methylimidazol-4-ylmethyl acetate dihydrochloride] the same measures were 45 µM and 4%.
Regarding `CCC(NCC(C)N1CCOCC1)c1ccc(Cl)c(Cl)c1` (stereo not drawn) [N-[2-(4-Morpholino)propyl]-α-ethyl-3,4-dichlorobenzylamine], the antiinflammatory activity result in data set [3] is “antiinflanmmtory activity”. In addition, the undesirable side-effects entry with mice is “wide range of undesirable side-effects in mice”.
Turning to “N-[1-(4-Chlorophenyl)ethyl]-3-(4/5-methylimidazol-1-yl)propylamine [Example 54]”, in data set [1], the IC50 was found to be 12 µM. Besides, the “Test B % inhibition at 100 mg/kg” value in data set [2] (oral) stood at 63%.
